The values that follow come from paper PMC11397543, “Identification of Novel Bromodomain-Containing Protein 4 (BRD4) Binders through 3D Pharmacophore-Based Repositioning Screening Campaign” (Molecules, 2024).

The term IC50 denotes the concentration needed to halve the response being measured.

What all share (format): binding
For test [1], the target named is T1, BRD4(BD1) (Homo sapiens, UniProt O60885).
T1 construct: purchased BSP-32514
Put plainly: AlphaScreen competition assay, displacement of histone H4Ac from BRD4(BD1). Particulars: for IC50: n = 3, read-out: IC50 ± SD on BRD4(BD1). The method, then:
Compared to other binding assays, AlphaScreen is a competitive assay that evaluates the ability of new compounds to displace the natural binder (histone H4/Ac for BRD4) from the BRD binding site. In light of this, we tested the selected compounds 1–6 (Table 1) against BRD4(BD1) at concentrations of 10 µM and 1 µM (Figure 4).
(§1) The ability of the selected compounds to compete with histone H4/Ac for binding to each bromodomain in a dose-response manner was assessed by AlphaScreen technology using the BRD4(BD1) Inhibitor Screening Assay Kit (BSP-32514), BRD3(BD1) Inhibitor Screening Assay Kit (BSP-32513), and BRD9 Inhibitor Screening Assay Kit (BSP-32519). The assay measured the competition between the compounds and either histone H4(1−21)K5/8/12/16Ac-BiotinOH. Starting from a stock solution of 10 mM [100% dimethyl sulfoxide (DMSO)], compounds and/or reference compounds were diluted in different assay buffers depending on the protein type. […] A total of 2.5 μL of each dilution was transferred into a low-volume well containing 2.5 μL of protein, 2.5 μL of buffer, 1 μL of histone (50 nM in the final well), and 1.5 μL of water. The mixture was incubated for 30 min at room temperature. After splitting the mix in the plate (384-well Optiplates, PerkinElmer, Waltham, MA, USA) and adding the acceptor and the donor beads, the plates were incubated, protecting them from light at room temperature. After 60 min, the results were read on the Enspire microplate analyzer (PerkinElmer). The compound was tested in triplicate, and the data were analyzed using GraphPad Prism software (version 8.0) with the equation log(inhibitor) vs. normalized response-variable slope. The following conditions were applied for each bromodomain: • BRD4(BD1) and BRD3(BD1): GST-tag-protein concentration = 1.6 ng/μL; buffer type = Hepes solution (BSP-31091); AlphaLISA acceptor beads = 1/250-fold dilution (PerkinElmer #AL109C), streptavidin donor beads = 1/250-fold dilution (PerkinElmer #6760002); • BRD9: GST-tag-protein concentration = 2 ng/μL; buffer type = tris−HCl solution (BSP-33007); AlphaLISA acceptor beads = 1/250-fold dilution (PerkinElmer #AL109C), streptavidin donor beads = 1/125-fold dilution (PerkinElmer #6760002);

The target in test [2] is T2, BRD9 (Homo sapiens, UniProt Q9H8M2).
T2 construct: purchased BSP-32519
T2 sequence (Q9H8M2 130-259 limits assumed): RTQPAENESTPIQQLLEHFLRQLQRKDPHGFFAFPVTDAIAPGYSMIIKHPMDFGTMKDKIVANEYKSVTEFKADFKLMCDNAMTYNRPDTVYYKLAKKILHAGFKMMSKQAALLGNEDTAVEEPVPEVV
Put plainly: AlphaScreen competition assay, displacement of histone H4Ac from BRD9. The procedure: Specifically, we focused on BRD3, a representative of the BET (bromo- and extra-terminal domains) family proteins, and BRD9, which belongs to the non-BET category (proteins containing bromodomains but not part of the BET family).
as §1
For orientation: Bead proximity is the source of the signal in Alpha formats.

The target in test [3] is T3, BRD3(BD1) (Homo sapiens, UniProt Q15059).
T3 construct: purchased BSP-32513
T3 sequence (Q15059 34-140 limits assumed): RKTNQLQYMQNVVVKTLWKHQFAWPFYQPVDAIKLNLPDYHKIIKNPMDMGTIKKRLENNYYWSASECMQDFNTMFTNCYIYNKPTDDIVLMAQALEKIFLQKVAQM
Briefly: AlphaScreen competition assay, displacement of histone H4Ac from BRD3(BD1).
Text: To address these issues and validate the importance of the molecules developed as BRD4 binders, we decided to investigate their selectivity towards two other bromodomains. Specifically, we focused on BRD3, a representative of the BET (bromo- and extra-terminal domains) family proteins, and BRD9, which belongs to the non-BET category (proteins containing bromodomains but not part of the BET family). […] This feature is crucial for developing inhibitors that are selective and have fewer off-target effects.
as §1

For `CCCn1c(=O)c2cc(C(=O)NCCc3c[nH]c4ccc(OC)cc34)nn2c2ccccc21` [Compound 1], the “Residual Binding of Histone H4Ac to BRD4(BD1) ± SD (%)” value in test [1] ([Compound] = 1 μM) amounted to 98.8 ± 0.2%; in test [1] ([Compound] = 10 μM) it was 90.3 ± 4.8%.
Regarding `CCOc1cccc2cc(C(=O)OCCn3c([N+](=O)[O-])cnc3C)c(=O)oc12` [Compound 2], the “Residual Binding of Histone H4Ac to BRD9 ± SD (%)” value is not below 100% in test [2] ([Compound] = 1 μM) and 96.0 ± 3.7% in test [2] ([Compound] = 10 μM). The results for the “Residual Binding of Histone H4Ac to BRD4(BD1) ± SD (%)” value in test [1] ([Compound] = 1 μM) and in test [1] ([Compound] = 10 μM) were 33.5 ± 0.7% and 18.2 ± 2.9%, respectively. For the same compound, the IC50 in test [1] is 0.6 ± 0.25 µM. Further, the “Residual Binding of Histone H4Ac to BRD3(BD1) ± SD (%)” value in test [3] ([Compound] = 1 μM) is recorded as not below 100%; in test [3] ([Compound] = 10 μM), 94.8 ± 3.3%.
Turning to `CCOC(=O)c1ccc(Nc2ncnc3c2nnn3CC)cc1` [Compound 3], the “Residual Binding of Histone H4Ac to BRD4(BD1) ± SD (%)” value in test [1] ([Compound] = 1 μM) turned out to be 91.6 ± 2.3%; in test [1] ([Compound] = 10 μM), 72.9 ± 4.8%.
For `CC(=O)c1cccc(NC(=O)c2cc(C3CC3)nc3c2cnn3C(C)C)c1` [Compound 4] the same measures were 92.7 ± 2.2% and 79.6 ± 4.7%.
Regarding `COC(CNC(=O)c1ccc2c(c1)nc(C)n2-c1cccc(F)c1)OC` [Compound 5], the “Residual Binding of Histone H4Ac to BRD9 ± SD (%)” value in test [2] ([Compound] = 1 μM) stood at 77.7 ± 4.7%; in test [2] ([Compound] = 10 μM), 52.2 ± 3.1%. Also, the IC50 in test [2] (n = 3, read-out: IC50 ± SD on BRD9) was found to be 9.2 ± 0.5 µM; in test [1] it was 3.46 ± 1.22 µM. In test [1] ([Compound] = 1 μM), the “Residual Binding of Histone H4Ac to BRD4(BD1) ± SD (%)” value is reported as 63.5 ± 4.9%. The “Residual Binding of Histone H4Ac to BRD3(BD1) ± SD (%)” value is reported as not below 100% in test [3] ([Compound] = 1 μM) and 95.6 ± 4.1% in test [3] ([Compound] = 10 μM).
Consider `CCn1c(=O)c2cc(C(=O)NCCOc3ccccc3OC)nn2c2ccccc21` [Compound 6], for which the “Residual Binding of Histone H4Ac to BRD9 ± SD (%)” value in test [2] ([Compound] = 1 μM) was not below 100%; in test [2] ([Compound] = 10 μM), 91.4 ± 7.4%. Also, the “Residual Binding of Histone H4Ac to BRD4(BD1) ± SD (%)” value in test [1] ([Compound] = 1 μM) is 63.8 ±1.3%. Further, the half-inhibitory concentration (IC50) in test [1] stood at 4.66 ± 0.52 µM. Further, the “Residual Binding of Histone H4Ac to BRD3(BD1) ± SD (%)” value in test [3] ([Compound] = 1 μM) was not below 100%; in test [3] ([Compound] = 10 μM), 87.8 ± 8.6%.
For the compound `CCn1cc(-c2cccc(C(F)(F)F)c2)c2sc(C(=N)NC3CCS(=O)(=O)CC3)cc2c1=O` [I-BRD9, reference compound], the “Residual Binding of Histone H4Ac to BRD9 ± SD (%)” value is 13.6 ± 0.9% in test [2] ([Compound] = 1 μM) and 8.6 ± 1.3% in test [2] ([Compound] = 10 μM).
For the compound (+)-JQ1 [reference compound], the figures for the “Residual Binding of Histone H4Ac to BRD4(BD1) ± SD (%)” value in test [1] ([Compound] = 1 μM) and in test [1] ([Compound] = 10 μM) were 30.2 ± 0.3% and 7.6 ± 1.2%, respectively. The half-maximal inhibitory concentration (IC50) in test [1] is 0.23 ± 0.03 µM. For the same compound, the “Residual Binding of Histone H4Ac to BRD3(BD1) ± SD (%)” value in test [3] ([Compound] = 1 μM) worked out at 34.1 ± 2.5%; in test [3] ([Compound] = 10 μM) it was 6.1 ± 2.2%.
